According to article PMC8050276, “Estradiol analogs attenuate autophagy, cell migration and invasion by direct and selective inhibition of TRPML1, independent of estrogen receptors” (Scientific Reports, 2021):

Columns and labels:
hTRPML1 WT = target: T1, hTRPML1 WT (Homo sapiens, UniProt Q9GZU1); assay: Endolysosomal patch-clamp, vacuolin-enlarged endo-lysosomes from hTRPML1 WT expressing HEK293 cells; assay type: cell-based; conditions: activation with ML-SA1 (10 µM) or PI(3,5)P2 (1 µM), luminal pH 4.6
T1 construct: expressed in transfected cells; host or cells: HEK293
T1 sequence (Q9GZU1 whole entry): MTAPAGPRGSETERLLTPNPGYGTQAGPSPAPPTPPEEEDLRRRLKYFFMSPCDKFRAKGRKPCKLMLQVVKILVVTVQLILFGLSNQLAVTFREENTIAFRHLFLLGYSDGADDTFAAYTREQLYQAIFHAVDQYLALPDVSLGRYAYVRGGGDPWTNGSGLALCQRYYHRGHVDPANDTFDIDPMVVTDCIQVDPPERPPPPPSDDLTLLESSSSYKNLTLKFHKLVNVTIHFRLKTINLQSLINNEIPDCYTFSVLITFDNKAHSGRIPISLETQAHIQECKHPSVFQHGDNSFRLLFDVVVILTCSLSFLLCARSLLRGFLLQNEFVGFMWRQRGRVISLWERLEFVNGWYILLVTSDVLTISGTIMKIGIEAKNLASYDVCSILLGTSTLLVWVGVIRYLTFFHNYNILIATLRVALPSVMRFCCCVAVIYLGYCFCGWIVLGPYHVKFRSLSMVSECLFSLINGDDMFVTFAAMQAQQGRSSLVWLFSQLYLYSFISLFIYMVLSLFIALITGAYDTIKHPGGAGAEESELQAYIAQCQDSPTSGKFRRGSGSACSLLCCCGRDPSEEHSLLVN
Experimental: (§1) For whole-LE/LY manual patch-clamp recordings, cells were treated with 1 μM vacuolin-1 (> 2 h) at 37 °C and 5% CO2 and experiments performed as described previously[19],[25]. Compound was washed out before patch-clamp experimentation. Currents were recorded using an EPC-10 patch-clamp amplifier (HEKA, Lambrecht, Germany) and PatchMaster acquisition software (https://www.heka.com/). Data were digitized at 40 kHz and filtered at 2.8 kHz. Fast and slow capacitive transients were cancelled by the compensation circuit of the EPC-10 amplifier. All recordings were obtained at room temperature and were analyzed using PatchMaster acquisition software (https://www.heka.com/) and OriginPro 6.1 (https://www.originlab.com/). […] For all experiments, salt-agar bridges were used to connect the reference Ag–AgCl wire to the bath solution to minimize voltage offsets. Liquid junction potential was corrected. For the application of the small molecule inhibitors/flavonoids, cytoplasmic solution was completely exchanged by cytoplasmic solution containing compound. The current amplitudes at − 100 mV were extracted from individual ramp current recordings. Unless otherwise stated, cytoplasmic solution contained 140 mM K-MSA, 5 mM KOH, 4 mM NaCl, 0.39 mM CaCl2, 1 mM EGTA and 10 mM HEPES (pH was adjusted with KOH to 7.2). […]

MDA-MB-231 cells = assay: Wound healing/migration scratch assay; assay type: cell-based, human; conditions: various concentrations, o/n
Experimental: Wound healing assay was performed using 12-well plates (Sarstedt) at full confluency. Cells were incubated overnight (serum-free), and a scratch was performed using a yellow pipet tip. Pictures were taken at 0 h and after over night (o/n) incubation using an inverted microscope (Leica DM IL LED) and using a microscope camera (Leica DFC 3000 G).

TRPML1 [1] = target: T2, TRPML1 (Homo sapiens, UniProt Q9GZU1); assay: Endolysosomal patch-clamp, endo-lysosomes from MDA-MB-231 cells; assay type: cell-based; conditions: activation with ML-SA1
T2 construct: vacuolin-enlarged endo-lysosomes isolated from WT and KO1 MDA-MB-231 cells; endogenous in cells; host or cells: MDA-MB-231
T2 sequence (Q9GZU1 whole entry): as above
Experimental: as §1

hTPC2L11A/L12A-RFP = target: T3, hTPC2L11A/L12A-RFP (Homo sapiens, UniProt Q8NHX9, L11A/L12A); assay: Fluo-4 Ca2+ assay, HEK293 stably expressing hTPC2L11A/L12A-RFP, activated with TPC2-A1-N or TPC2-A1-P; assay type: cell-based; conditions: activated by either TPC2-A1-P or TPC2-A1-N
T3 construct: expressed in transfected cells
T3 sequence (Q8NHX9 whole entry L11A/L12A): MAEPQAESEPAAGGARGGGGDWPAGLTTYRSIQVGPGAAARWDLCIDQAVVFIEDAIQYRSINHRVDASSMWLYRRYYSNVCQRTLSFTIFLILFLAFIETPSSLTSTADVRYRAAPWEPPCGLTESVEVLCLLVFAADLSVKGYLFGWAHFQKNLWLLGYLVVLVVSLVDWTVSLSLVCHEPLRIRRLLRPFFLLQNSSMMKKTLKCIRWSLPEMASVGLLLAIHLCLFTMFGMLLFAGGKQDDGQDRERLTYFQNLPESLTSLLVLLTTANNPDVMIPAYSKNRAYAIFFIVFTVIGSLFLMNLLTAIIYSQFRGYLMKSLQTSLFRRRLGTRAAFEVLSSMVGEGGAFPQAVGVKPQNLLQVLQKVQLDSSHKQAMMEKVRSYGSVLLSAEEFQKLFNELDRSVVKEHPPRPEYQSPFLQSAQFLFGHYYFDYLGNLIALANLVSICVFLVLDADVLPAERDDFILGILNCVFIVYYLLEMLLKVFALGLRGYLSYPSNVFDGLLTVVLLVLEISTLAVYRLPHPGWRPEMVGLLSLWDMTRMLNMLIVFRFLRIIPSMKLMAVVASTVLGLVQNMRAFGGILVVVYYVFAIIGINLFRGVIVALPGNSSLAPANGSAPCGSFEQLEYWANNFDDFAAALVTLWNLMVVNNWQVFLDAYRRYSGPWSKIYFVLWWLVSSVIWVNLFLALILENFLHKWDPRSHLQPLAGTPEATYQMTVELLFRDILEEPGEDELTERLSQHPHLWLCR

hTRPML2 = target: T4, hTRPML2 (Homo sapiens, UniProt Q8IZK6); assay: Whole-cell patch-clamp, tetracycline-inducible HEK293 hTRPML2; assay type: cell-based; conditions: 30 µM ML-SA1, pH 7.4; read-out: TRPML2 IC50, whole-cell patch-clamp
T4 construct: host or cells: HEK293, FLP-in-Tet-On, tetracycline-induced
T4 sequence (Q8IZK6 1-566): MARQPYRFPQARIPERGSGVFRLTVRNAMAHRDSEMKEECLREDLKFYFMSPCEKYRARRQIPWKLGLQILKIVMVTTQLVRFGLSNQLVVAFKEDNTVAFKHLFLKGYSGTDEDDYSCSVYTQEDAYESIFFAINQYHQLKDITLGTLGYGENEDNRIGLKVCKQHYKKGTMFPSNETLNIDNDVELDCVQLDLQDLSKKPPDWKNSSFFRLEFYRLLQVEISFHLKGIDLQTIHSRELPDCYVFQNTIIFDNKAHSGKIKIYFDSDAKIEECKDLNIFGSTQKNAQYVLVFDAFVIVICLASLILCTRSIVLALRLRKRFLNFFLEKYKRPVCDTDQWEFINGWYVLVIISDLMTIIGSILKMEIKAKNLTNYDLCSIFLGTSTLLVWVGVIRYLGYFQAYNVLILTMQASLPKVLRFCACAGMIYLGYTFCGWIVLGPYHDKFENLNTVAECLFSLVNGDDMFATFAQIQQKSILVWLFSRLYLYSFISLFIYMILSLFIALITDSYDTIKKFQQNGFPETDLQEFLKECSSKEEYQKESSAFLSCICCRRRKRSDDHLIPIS
Experimental: Experiments were performed as described previously[20],[42]. In brief, cells were cultured on coverslips (Fisherbrand, Fisher Scientific) in complete DMEM medium with 10% FBS (Thermo Fisher). HEK293 cells expressing the desired channel protein were patch-clamped after overnight induction with tetracycline (1 µg/mL). […] The low pH bath solution contained (mM) 150 Na-Gluconate, 5 KCl, 2 CaCl2, 1 MgCl2, 10 glucose, 10 HEPES and 10 MES (pH 4.6). Whole‐cell currents were recorded using a Multiclamp 700B amplifier (Molecular Devices) with low‐pass filtering at 3 kHz. […] Current recording was done with WinWCP5.2.7 (University of Strathclyde, UK) software, and analysis was done with the help of a customized Igor pro program (WaveMetrics).

TRPML1 [2] = target: T5, TRPML1 (Mus musculus, UniProt Q99J21); assay: Endolysosomal patch-clamp, murine alveolar macrophages endogenously expressing TRPML1; assay type: cell-based; conditions: EDME 10 µM, ML-SA1 10 µM
T5 construct: TRPML1 endogenously expressed in mouse alveolar macrophages; endogenous in cells; host or cells: primary murine alveolar macrophages
T5 sequence (Q99J21 whole entry): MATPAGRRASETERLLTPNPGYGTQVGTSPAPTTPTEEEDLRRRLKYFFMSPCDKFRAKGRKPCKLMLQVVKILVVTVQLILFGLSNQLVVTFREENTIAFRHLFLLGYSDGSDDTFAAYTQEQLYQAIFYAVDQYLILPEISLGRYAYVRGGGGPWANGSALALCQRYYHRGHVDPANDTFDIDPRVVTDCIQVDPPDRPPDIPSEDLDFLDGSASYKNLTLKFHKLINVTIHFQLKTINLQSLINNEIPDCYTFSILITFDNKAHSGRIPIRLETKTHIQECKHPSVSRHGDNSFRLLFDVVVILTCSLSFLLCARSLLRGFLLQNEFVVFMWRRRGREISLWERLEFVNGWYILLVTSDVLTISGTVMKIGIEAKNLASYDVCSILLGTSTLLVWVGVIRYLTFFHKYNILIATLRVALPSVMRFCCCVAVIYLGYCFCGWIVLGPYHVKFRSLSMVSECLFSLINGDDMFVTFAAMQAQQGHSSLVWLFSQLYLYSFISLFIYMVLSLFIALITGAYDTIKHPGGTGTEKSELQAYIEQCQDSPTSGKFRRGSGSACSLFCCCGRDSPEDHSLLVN
Experimental: as §1

Compound: COc1ccc2c(c1)CC[C@@H]1[C@@H]2CC[C@]2(C)[C@@H](O)CC[C@@H]12 [EDME, 17β-estradiol methyl ether]
- inhibition of WT hTRPML1 current, endolysosomal patch-clamp (hTRPML1 WT): inhibitory effect
- migration of MDA-MB-231 cells (MDA-MB-231 cells): reduced significantly
- inhibition of TRPML1 activation in MDA-MB-231 endo-lysosomes (TRPML1 [1]): inhibits TRPML1 activation
- IC50 at TPC2 (hTPC2L11A/L12A-RFP): no meaningful IC50s
- IC50 (hTRPML2): 3.8 µM
- inhibition of endogenous TRPML1 in alveolar macrophages (TRPML1 [2]): inhibition of TRPML1 activation
